Results published in PubChem BioAssay AID248 (DTP/NCI, 2004).
Values joined by “and” are separate entries in the source; they are usually repeats but may differ in a detail not shown here. Equal entries are not always repeated. Inconclusive results and toxic doses are left out. Rule as the data show it: active = T/C of 150% or more; inactive = T/C below 125%.

Test system: L1210 leukemia ip in BDF1 mice, survival T/C
Test: NCI In Vivo Anticancer Drug Screen. Data for tumor model L1210 Leukemia (intraperitoneal) in B6D2F1 (BDF1) mice
Conditions: endpoint: mean survival time, higher = longer survival
Outline: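 Antitumor effect is assessed in tumor-bearing animals. Survival in the compound arm is compared with a vehicle-dosed control arm and expressed as their quotient.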

[1] = dose: 100.0 mg/kg/injection, schedule: Q01DX009 (ip), vehicle: saline with Tween-80
[2] = dose: 100.0 mg/kg/injection, schedule: Q04DX002 (ip), vehicle: saline with Tween-80
[3] = dose: 100.0 mg/kg/injection, schedule: Q04DX003 (ip), vehicle: saline with Tween-80
[4] = dose: 200.0 mg/kg/injection, schedule: Q01DX009 (ip), vehicle: saline with Tween-80
[5] = dose: 200.0 mg/kg/injection, schedule: Q04DX002 (ip), vehicle: saline with Tween-80
[6] = dose: 200.0 mg/kg/injection, schedule: Q04DX003 (ip), vehicle: saline with Tween-80
[7] = dose: 400.0 mg/kg/injection, schedule: Q01DX009 (ip), vehicle: saline with Tween-80
[8] = dose: 400.0 mg/kg/injection, schedule: Q04DX002 (ip), vehicle: saline with Tween-80
[9] = dose: 400.0 mg/kg/injection, schedule: Q04DX003 (ip), vehicle: saline with Tween-80
[10] = dose: 50.0 mg/kg/injection, schedule: Q01DX001 (ip), vehicle: saline
[11] = dose: 100.0 mg/kg/injection, schedule: Q01DX001 (ip), vehicle: saline
[12] = dose: 200.0 mg/kg/injection, schedule: Q01DX001 (ip), vehicle: saline
[13] = dose: 100.0 mg/kg/injection, schedule: Q04DX003 (ip), vehicle: Klucel (hydroxypropylcellulose) (HPC)
[14] = dose: 200.0 mg/kg/injection, schedule: Q01DX001 (ip), vehicle: carboxymethylcellulose (CMC)

Measured: T/C

CCOC(=O)c1ccc(NC(=O)Nc2cccc3c(O)cccc23)cc1
inactive: dose: 50.0 mg/kg/injection, schedule: Q04DX003 (ip), vehicle: saline with Tween-80 102 % of control | dose: 100.0 mg/kg/injection, schedule: Q01DX001 (ip), vehicle: saline with Tween-80 86 % of control | [1] 86 % of control | [2] 97 % of control and 106 % of control | [3] 94 % of control | dose: 200.0 mg/kg/injection, schedule: Q01DX001 (ip), vehicle: saline with Tween-80 86 % of control | [4] 89 % of control | [5] 97 % of control and 91 % of control | [6] 93 % of control and 87 % of control | [7] 89 % of control | [8] 89 % of control and 91 % of control | [9] 97 % of control

O=[N+]([O-])C=C([SH2+])[SH2+].O=[N+]([O-])C=C([SH2+])[SH2+].[Pt+2].c1ccc(C[P+](c2ccccc2)(c2ccccc2)c2ccccc2)cc1
inactive: [10] 95 % of control | [11] 110 % of control | [12] 96 % of control

CNC(=O)Nc1ccc(C(=O)NCC(=O)O)cc1
inactive: [1] 100 % of control and 105 % of control | dose: 100.0 mg/kg/injection, schedule: Q04DX002 (ip), vehicle: saline 100 % of control and 92 % of control | [3] 98 % of control | [4] 93 % of control and 100 % of control | dose: 200.0 mg/kg/injection, schedule: Q04DX002 (ip), vehicle: saline 100 % of control and 91 % of control | [6] 91 % of control | [7] 105 % of control and 110 % of control | dose: 400.0 mg/kg/injection, schedule: Q04DX002 (ip), vehicle: saline 95 % of control and 96 % of control | [9] 98 % of control

COc1ccc(NC(=O)C(CC(C(C)=O)C(=O)Nc2ccc(OC)cc2)C(C)=O)cc1 (centres undefined)
inactive: [1] 87 % of control | [7] 88 % of control

CCOP(=O)(OCC)/C(=C\c1ccccc1)C(=O)c1ccccc1
inactive: dose: 25.0 mg/kg/injection, schedule: Q04DX003 (ip), vehicle: Klucel (hydroxypropylcellulose) (HPC) 87 % of control | dose: 50.0 mg/kg/injection, schedule: Q04DX003 (ip), vehicle: Klucel (hydroxypropylcellulose) (HPC) 87 % of control | dose: 100.0 mg/kg/injection, schedule: Q01DX001 (ip), vehicle: Klucel (hydroxypropylcellulose) (HPC) 107 % of control | [13] 90 % of control | dose: 200.0 mg/kg/injection, schedule: Q01DX001 (ip), vehicle: Klucel (hydroxypropylcellulose) (HPC) 98 % of control | dose: 400.0 mg/kg/injection, schedule: Q01DX001 (ip), vehicle: Klucel (hydroxypropylcellulose) (HPC) 106 % of control

O=C1NCCS1
inactive: dose: 50.0 mg/kg/injection, schedule: Q01DX009 (ip), vehicle: saline 107 % of control | [1] 107 % of control | dose: 100.0 mg/kg/injection, schedule: Q01DX009 (ip), vehicle: saline 92 % of control | dose: 100.0 mg/kg/injection, schedule: Q04DX003 (ip), vehicle: saline sonified 102 % of control | [4] 107 % of control | dose: 200.0 mg/kg/injection, schedule: Q01DX009 (ip), vehicle: saline 115 % of control | dose: 200.0 mg/kg/injection, schedule: Q04DX003 (ip), vehicle: saline sonified 100 % of control | [7] 96 % of control | dose: 400.0 mg/kg/injection, schedule: Q04DX003 (ip), vehicle: saline sonified 106 % of control

CCCCCCC(=O)N(CC)C(=NCC)c1ccc(NC(=O)c2ccc(C(=O)Nc3ccc(C(=NCC)N(CC)C(=O)CCCCCC)cc3)cc2)cc1
inactive: dose: 3.75 mg/kg/injection, schedule: Q01DX015 (ip), vehicle: methylcellulose (MC) 98 % of control | dose: 7.5 mg/kg/injection, schedule: Q01DX015 (ip), vehicle: methylcellulose (MC) 101 % of control | dose: 15.0 mg/kg/injection, schedule: Q01DX015 (ip), vehicle: methylcellulose (MC) 98 % of control | dose: 30.0 mg/kg/injection, schedule: Q01DX015 (ip), vehicle: methylcellulose (MC) 90 % of control | dose: 62.0 mg/kg/injection, schedule: Q01DX015 (ip), vehicle: methylcellulose (MC) 93 % of control | dose: 125.0 mg/kg/injection, schedule: Q01DX015 (ip), vehicle: methylcellulose (MC) 90 % of control | dose: 250.0 mg/kg/injection, schedule: Q01DX015 (ip), vehicle: methylcellulose (MC) 87 % of control | dose: 500.0 mg/kg/injection, schedule: Q01DX015 (ip), vehicle: methylcellulose (MC) 86 % of control

COc1cccc(C2NC(=O)CCC2[N+](=O)[O-])c1OC (centres undefined)
inactive: [2] 105 % of control | [5] 102 % of control | [8] 94 % of control

CCCCCCCCCCCCCCCCC[As](=O)(O)CCCCCCCCCCCCCCCCC
inactive: [10] 101 % of control | [11] 95 % of control | [12] 89 % of control | dose: 400.0 mg/kg/injection, schedule: Q01DX001 (ip), vehicle: saline 97 % of control

CC(=O)Oc1oc(-c2ccccc2)nc1-c1ccccc1
inactive: [1] 108 % of control | [3] 98 % of control | [4] 94 % of control | [6] 100 % of control | [7] 97 % of control | [9] 104 % of control

COC1=C(NC(C)c2ccccc2)C(=O)C(OC)=C(NC(C)c2ccccc2)C1=O (centres undefined)
inactive: dose: 50.0 mg/kg/injection, schedule: Q01DX001 (ip), vehicle: carboxymethylcellulose (CMC) 96 % of control | [14] 89 % of control

Nc1nc(N=Nc2ccc(O)cc2)cc(=O)[nH]1
inactive: dose: 50.0 mg/kg/injection, schedule: Q01DX009 (ip), vehicle: other 102 % of control | dose: 100.0 mg/kg/injection, schedule: Q01DX009 (ip), vehicle: other 107 % of control | dose: 100.0 mg/kg/injection, schedule: Q04DX002 (ip), vehicle: other 105 % of control | dose: 200.0 mg/kg/injection, schedule: Q01DX009 (ip), vehicle: other 94 % of control | dose: 200.0 mg/kg/injection, schedule: Q04DX002 (ip), vehicle: other 105 % of control | dose: 400.0 mg/kg/injection, schedule: Q01DX009 (ip), vehicle: other 103 % of control | dose: 400.0 mg/kg/injection, schedule: Q04DX002 (ip), vehicle: other 99 % of control

O=C1CCCc2c1cc(C1CCCC1)c1ccccc21
inactive: dose: 100.0 mg/kg/injection, schedule: Q01DX001 (ip), vehicle: carboxymethylcellulose (CMC) 92 % of control | [14] 95 % of control | dose: 400.0 mg/kg/injection, schedule: Q01DX001 (ip), vehicle: carboxymethylcellulose (CMC) 98 % of control

CN(Cc1ccc2nc(N)[nH]c(=O)c2c1)c1ccc(C(=O)NC(CCC(=O)O)C(=O)O)cc1 (centres undefined)
inactive: dose: 50.0 mg/kg/injection, schedule: Q01DX009 (ip), vehicle: water 104 % of control | dose: 100.0 mg/kg/injection, schedule: Q01DX009 (ip), vehicle: water 113 % of control | dose: 100.0 mg/kg/injection, schedule: Q04DX003 (ip), vehicle: water 108 % of control | dose: 200.0 mg/kg/injection, schedule: Q04DX003 (ip), vehicle: water 100 % of control

O=c1ccc2c(-c3cc(S(=O)(=O)O)ccc3O)c3ccc(O)cc3oc-2c1
inactive: [13] 91 % of control | dose: 200.0 mg/kg/injection, schedule: Q04DX003 (ip), vehicle: Klucel (hydroxypropylcellulose) (HPC) 89 % of control | dose: 400.0 mg/kg/injection, schedule: Q04DX003 (ip), vehicle: Klucel (hydroxypropylcellulose) (HPC) 91 % of control

NC(=O)C[n+]1cccc(C(N)=O)c1
inactive: dose: 100.0 mg/kg/injection, schedule: Q04DX003 (ip), vehicle: saline 97 % of control | dose: 200.0 mg/kg/injection, schedule: Q04DX003 (ip), vehicle: saline 101 % of control | dose: 400.0 mg/kg/injection, schedule: Q04DX003 (ip), vehicle: saline 101 % of control
